# Assays:
# AidB [1] = target: T1, AidB (Escherichia coli, UniProt P33224); assay: shift of flavin midpoint reduction potential (xanthine/xanthine oxidase redox potentiometry), two-state binding fit; details: read-out: Kd^app
# T1 construct: predominantly tetramer in solution
# T1 sequence (P33224 1-541): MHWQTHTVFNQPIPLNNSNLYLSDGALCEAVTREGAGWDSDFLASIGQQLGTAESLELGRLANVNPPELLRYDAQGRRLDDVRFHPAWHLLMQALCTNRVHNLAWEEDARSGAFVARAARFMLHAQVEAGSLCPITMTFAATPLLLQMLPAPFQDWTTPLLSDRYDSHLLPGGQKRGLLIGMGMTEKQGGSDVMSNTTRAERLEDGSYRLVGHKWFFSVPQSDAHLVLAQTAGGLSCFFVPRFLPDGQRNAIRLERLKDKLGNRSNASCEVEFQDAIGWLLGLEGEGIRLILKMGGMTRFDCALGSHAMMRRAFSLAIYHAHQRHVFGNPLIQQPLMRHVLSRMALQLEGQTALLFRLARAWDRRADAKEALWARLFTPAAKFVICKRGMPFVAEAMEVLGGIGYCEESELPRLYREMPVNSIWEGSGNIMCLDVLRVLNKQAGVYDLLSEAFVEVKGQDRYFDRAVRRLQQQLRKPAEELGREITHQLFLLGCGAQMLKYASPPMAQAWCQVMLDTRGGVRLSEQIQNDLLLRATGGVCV
# AidB [2] = target: T1, AidB; assay: UV-visible spectroscopy and redox potentiometry of bound flavin; type: binding; details: bound FAD of the purified protein; pH 8.0, 300 mM NaCl, anaerobic
Kd (AidB [1]),SMILES,UV-visible spectroscopy and redox potentiometry of bound flavin (AidB [2])
87 ± 27 µM,CC(C)CC(=O)SCCNC(=O)CCNC(=O)[C@H](O)C(C)(C)COP(=O)(O)OP(=O)(O)OC[C@H]1O[C@@H](n2cnc3c(N)ncnc32)[C@H](O)[C@@H]1OP(=O)(O)O [IVCoA],–
–,Cc1cc2nc3c(=O)[nH]c(=O)nc-3n(C[C@H](O)[C@H](O)[C@H](O)COP(=O)(O)OP(=O)(O)OC[C@H]3O[C@@H](n4cnc5c(N)ncnc54)[C@H](O)[C@@H]3O)c2cc1C [FAD],Reduction potentials of the AidB FAD cofactor were measured using the xanthine/xanthine oxidase system
